Measurements reported in publication PMC2477751 (International journal of experimental diabetes research, 2000).
“Also recorded” adds a separate entry of the source. Where two headings read alike, the source gives them in different places.

Tests used:
[1] = system: serum growth hormone (GH); test: Serum rat growth hormone (RIA) after subcutaneous octreotide injection; format: in vivo
[2] = system: serum insulin-like growth factor I (IGF-I); test: Serum IGF-I (RIA after acid-methanol extraction) after subcutaneous octreotide injection; format: in vivo, rat
[3] = system: hypoxia-induced retinal neovascularization; test: Neonatal rat retinopathy (ROP) model, alternating hypoxia/hyperoxia, histologic scoring of eyes; format: in vivo
Method: We evaluated its effect on retinal neovascularization in vivo, using a neonatal rat retinopathy model. Methods: We used, on alternating days, hypoxia (10% O2) and hyperoxia (50% O2) during the first 14 days of neonatal rats, to induce retinal neovascularization. […] At day 18 the eyes were evaluated for the presence of epiretinal and vitreal hemorrhage, neovascularization and epiretinal proliferation.
Int. Jnl. Experimental Diab. Res., Vol. 1, pp. 39-47 Reprints available directly from the publisher Photocopying permitted by license only (C) 2000 OPA (Overseas Publishers Association) N.V. Published by license under the Harwood Academic Publishers imprint, part of The Gordon and Breach Publishing Group. Printed in Malaysia. […] We evaluated its effect on retinal neo- vascularization in vivo, using a neonatal rat retino- pathy model. Methods: We used, on alternating days, hypoxia (10%O2) and hyperoxia (50%02) during the first 14 days of neonatal rats, to induce retinal neovascu- larization. […] At day 18 the eyes were evaluated for the presence of epiretinal and vitreal hemorrhage, neovasculariza- tion and epiretinal proliferation. […] Keywords: Retinopathy of prematurity, angiogenesis, insulin- like growth factor, growth hormone, neovascularization INTRODUCTION Retinal neovascularization is a common feature of several eye diseases characterized by retinal hypoxia, such as proliferative diabetic retino- pathy (PDR) and retinopathy of prematurity (ROP). While the underlying pathology may be different in these conditions, the neovascular pro- cess itself leads to destruction of normal retina and eventually causes blindness. *Corresponding author. Department of Ophthalmology, Hadassah University Hospital, P. O. Box 12000, Jerusalem 91120, Israel. Tel.: +972-2-677 6927, Fax: +972-2-643 4434, e-maih edward@md2.huji.ac.il 39 40 E. AVERBUKH et al. Growth hormone (GH) and insulin-like growth factor I (IGF-I) have been implicated in the pathogenesis of PDR (Lundbaek et al., 1970; Dills et al., 1991). […] High vitre- ous levels of IGF-I and IGF binding proteins (IGFBPs) were found in patients with neovas- cular eye disease related to diabetes and to other ischemic retinal conditions (Meyer-Schwickerath et al., 1993). In addition, a recent study demon- strated the essential role of GH and IGF-I in the development of retinal neovascularization in the ROP model in mice (Smith et al., 1997). Decades ago, before the advent of lasers, elimination of GH production by pituitary ablation was an accepted therapy for PDR (Bradley, Rees and Fager, 1965). […] METHODS Animals Fifty-six neonatal Sabra rats (provided by the Harlan Laboratories, Jerusalem, Israel) were divided into experimental groups of eight to ten animals from mixed litters, not divided ac- cording to gender. At the age of one day the group with the lactating mother were placed in an incubator with a controlled oxygen con- centration. […] All the animals were maintained and treated in ac- cordance with the Association for Research in Vision and Ophthalmology statement on the use of animals in ophthalmic and vision re- search. Retinal neovascularization was induced by alternating oxygen concentrations as pre- viously described (Reynaud and Dorey, 1994; Penn, Tolman and Lowery, 1993). Briefly, the animals were exposed on alternating days to hypoxia (10% O2-24h) and hyperoxia (50% O2-24h) during their first 14 days, followed by four days in room air. Hypoxia was produced by mixing air with nitrogen, and hyperoxia by mixing air with oxygen. A minimal flow of two liters per minute was maintained. […] At day 18 the rats were anesthetized with ether and sacrificed. The eyes were enu- cleated and placed in formaldehyde. […] These areas are prone to ischemia when the oxygen level is lowered.

[4] = design: method as in Bauer et al., 1982; settings: ref Bauer et al., 1982; cited from earlier work
Source text: Int. Jnl. Experimental Diab. Res., Vol. 1, pp. 39-47 Reprints available directly from the publisher Photocopying permitted by license only (C) 2000 OPA (Overseas Publishers Association) N.V. Published by license under the Harwood Academic Publishers imprint, part of The Gordon and Breach Publishing Group. Printed in Malaysia.

[5] = system: IGF-I mRNA, GH stimulated hepatocytes; settings: ref Serri et al., 1992, cited from earlier work
Source text: (§1) Int. Jnl. Experimental Diab. […] Printed in Malaysia.

[6] = system: human retinal endothelial cell (HREC); settings: HREC stimulated by IGF-I and bFGF, ref Grant et al., 1993b, cited from earlier work
Source text: as §1

[7] = Serum octreotide level (RIA) after subcutaneous injection in neonatal rats; settings: Sabra, rat, sc
[8] = stated for both the octreotide-treated and the control groups

C[C@@H](O)[C@@H]1NC(=O)[C@H](CCCCN)NC(=O)[C@@H](Cc2c[nH]c3ccccc23)NC(=O)[C@H](Cc2ccccc2)NC(=O)[C@@H](NC(=O)[C@H](N)Cc2ccccc2)CSSC[C@@H](C(=O)N[C@H](CO)[C@@H](C)O)NC1=O [octreotide]
Serum GH level vs control group ([1]; 9 and 14 hours after injection): returned to baseline; also recorded: comparable | Decrease of serum GH level compared with saline injected animals ([1]; 2 hours after injection, p = 0.002): 40% | Serum IGF-I level vs control group ([2]; 2 hours after injection): unchanged; also recorded: similar | Elevation of serum IGF-I level vs control group ([2]; 9 hours after injection, p 0.06): 19% | Elevation of serum IGF-I level vs control group ([2]; 14 hours after injection, p = 0.02): 26% | Effect of injections on retinal pathology ([3]; 0.7 μg/g BW s.c. twice daily, Mann-Whitney Rank Sum Test vs saline): no statistically significant effect | Eyes in which NV was found ([3]; octreotide-treated eyes, day 18 (control 27%)): 35% | Eyes affected by any of epiretinal and vitreal hemorrhages [3, 8]: ~70% | Eyes affected by epiretinal or by vitreal hemorrhages, each one of them [3, 8]: approximately 45% | Eyes affected by PVR ([3]; stated for each group): less than 40% | Retinal neovascularization ([3]; twice-daily injections, neonatal rat ROP model): not inhibited | Plasma half-life [4]: 1.5 h | IGF-I mRNA abundance in cultured GH stimulated hepatocytes ([5]; high concentrations of octreotide (30 and 300 μg/l)): no effect | IGF-I mRNA levels in cultured GH stimulated hepatocytes ([5]; low octreotide concentrations (0.3 and 3 μg/l)): significantly reduced | Inhibition of [3H]thymidine incorporation ([6]; octreotide level 1.6 μg/l): 15% | Inhibition of [3H]thymidine incorporation ([6]; octreotide level 16 μg/l): 35% | Inhibition of [3H]thymidine incorporation ([6]; octreotide level 164 μg/l): 60% | half-life ([7]; 0.7 μg/g BW): 1.63 h | level at 9 h ([7]; 20 ug): 26.4 ng/mL | level at 14 h ([7]; 20 ug): 3.2 ng/mL
